Series [1] can be described thus: Compound cytotoxicity, XTT-based colorimetric assay. It counts as cell-based. To be noted: human, uninfected MT2 cells. The method, then: Compound cytotoxicity and the corresponding CC50 values were determined using the same protocol as described in the antiviral assay except that uninfected cells were used. Cytotoxicity was assessed on day 4 in uninfected MT2 cells by using a XTT (2,3-bis[2-Methoxy-4-nitro-5-sulfophenyl]-2H-tetrazolium-5-carboxyanilide inner salt)-based colorimetric assay (Sigma-Aldrich, St Louis, Mo.). Biological data for select compounds of the invention are contained in Table 1 and Table 1a

In series [2] the test system is recombinant NL4-3 virus (nef section replaced with Renilla luciferase gene) in MT-2 cells. The series can be described thus: HIV cell culture assay (antiviral activity, luciferase readout). It counts as cell-based. To be noted: MT-2 cells infected for 4-5 days with recombinant NL4-3 luciferase virus. Here is the method: HIV cell culture assay—MT-2 cells, 293T cells and the proviral DNA clone of NL4-3 virus were obtained from the NIH AIDS Research and Reference Reagent Program. MT-2 cells were propagated in RPMI 1640 media supplemented with 10% heat inactivated fetal bovine serum (FBS), 100 μg/ml penicillin G and up to 100 units/mL streptomycin. The 293T cells were propagated in DMEM media supplemented with 10% heat inactivated FBS, 100 μg/mL penicillin G and 100 μg/mL streptomycin. A recombinant NL4-3 proviral clone, in which a section of the nef gene was replaced with the Renilla luciferase gene, was used to make the reference virus used in these studies. The recombinant virus was prepared through transfection of the recombinant NL4-3 proviral clone into 293T cells using Transit-293 Transfection Reagent from Mirus Bio LLC (Madison, Wis.). Supernatent was harvested after 2-3 days and the amount of virus present was titered in MT-2 cells using luciferase enzyme activity as a marker by measuring luciferase enzyme activity. Luciferase was quantitated using the EnduRen Live Cell Substrate from Promega (Madison, Wis.). Antiviral activities of compounds toward the recombinant virus were quantified by measuring luciferase activity in MT-2 cells infected for 4-5 days with the recombinant virus in the presence of serial dilutions of the compound.
The 50% effective concentration (ECs) was calculated by using the exponential form of the median effect equation where (Fa)=1/[1+(ED50/drug conc.)^m] (Johnson Va., Byington RT. Infectivity Assay. In Techniques in HIV Research. ed. Aldovini A, Walker BD. 71-76. New York: Stockton Press. 1990).

Our source for the CC50 and EC50 values is patent US10954252B1, “Inhibitors of human immunodeficiency virus replication” (ViiV HEALTHCARE UK (NO.5) LIMITED, priority 2017, dated 2021).

Bounds are passed on as bounds.

For orientation: CC50 means the concentration at which the toxic effect on the cells reaches its halfway point. A higher CC50 goes with better tolerance by the cells. For orientation: EC50 means the concentration that produces a half-maximal response.

With `Cn1nc(NS(C)(=O)=O)c2c(Cl)ccc(-n3c([C@H](Cc4cc(F)cc(F)c4)NC(=O)Cn4ccc(C5CC5)n4)nc4cc(C(F)(F)F)ccc4c3=O)c21` (single isomer, unassigned) [Example 150], the cytotoxic concentration (CC50) at 4 days in series [1] (Table 1a, day 4, XTT) is greater than 1000 nM.
With `O=C(Cn1nc(C(F)F)c2c1C(F)(F)[C@@H]1C[C@H]21)N[C@@H](Cc1cc(F)cc(F)c1)c1nc2ccccc2c(=O)n1-c1ccc(Cl)cc1` [Example 124, N—((S)-1-(3-(4-chlorophenyl)-4-oxo-3,4-dihydroquinazolin-2-yl)-2-(3,5-difluorophenyl)ethyl)-2-((3bS,4aR)-3-(difluoromethyl)-5,5-difluoro-3b,4,4a,5-tetrahydro-1H-cyclopropa[3,4]cyclopenta[1,2-c]pyrazol-1-yl)acetamide], the CC50 at 4 days in series [1] (Table 1a, day 4, XTT) is greater than 1000 nM. Further, the concentration for a half-maximal effect (EC50) in series [2] (Renilla, NL43, Table 1a) was 208 nM.
`Cn1nc(NS(C)(=O)=O)c2c(Cl)ccc(-n3c([C@H](Cc4cc(F)cc(F)c4)NC(=O)Cn4nc(C(F)F)c5c4C(F)(F)[C@@H]4C[C@H]54)nc4cc(C#N)ccc4c3=O)c21` (single isomer, unassigned) [Example 20] yielded a CC50 at 4 days in series [1] (Table 1, day 4, XTT) greater than 10000 nM. Further, the EC50 in series [2] (Renilla, NL43, Table 1) came to 24 nM.
In turn, `Cn1nc(NS(C)(=O)=O)c2c(Cl)ccc(-n3c([C@H](Cc4cc(F)cc(F)c4)NC(=O)Cn4nc(C(F)F)c5c4C(F)(F)[C@@H]4C[C@H]54)nc4cc(C(C)(F)F)ccc4c3=O)c21` (single isomer, unassigned) [Example 196] had a half-maximal cytotoxic concentration (CC50) at 4 days in series [1] (Table 1a, day 4, XTT) greater than 1000 nM. The concentration giving a half-maximal response (EC50) in series [2] (Renilla, NL43, Table 1a) was found to be 0.081 nM.
`CC(C)(C)c1ccc2c(=O)n(-c3ccc(Cl)c4c(NS(=O)(=O)C5CC5)nn(CC(F)F)c34)c([C@H](Cc3cc(F)cc(F)c3)NC(=O)Cn3nc(C(F)F)c4c3C(F)(F)[C@@H]3C[C@H]43)nc2c1` [Example 218, N—((S)-1-(7-(tert-Butyl)-3-(4-chloro-3-(cyclopropanesulfonamido)-1-(2,2-difluoroethyl)-1H-indazol-7-yl)-4-oxo-3,4-dihydroquinazolin-2-yl)-2-(3,5-difluorophenyl)ethyl)-2-((3bS,4aR)-3-(difluoromethyl)-5,5-difluoro-3b,4,4a,5-tetrahydro-1H-cyclopropa[3,4]cyclopenta[1,2-c]pyrazol-1-yl)acetamide] returned a CC50 at 4 days in series [1] (Table 1a, day 4, XTT) greater than 1000 nM. For the same compound, the 50% effective concentration (EC50) in series [2] (Renilla, NL43, Table 1a) came out at 0.73 nM.
In turn, `Cc1ccn(CC(=O)N[C@@H](Cc2cc(F)cc(F)c2)c2nc3ncccc3c(=O)n2-c2ccc(Cl)c3c(NS(C)(=O)=O)nn(C)c23)n1` (single isomer, unassigned) [Example 47.1] yielded a cytotoxic concentration (CC50) at 4 days in series [1] (Table 1a, day 4, XTT) greater than 1000 nM. The EC50 in series [2] (Table 1a) came to 227 nM.
In series [1] (Table 1a, day 4, XTT), `Cn1nc(NS(C)(=O)=O)c2c(Cl)ccc(-n3c([C@H](Cc4cc(F)cc(F)c4)NC(=O)Cn4nc(C(F)F)c5c4C(F)(F)[C@@H]4C[C@H]54)nc4c(Cl)cccc4c3=O)c21` (single isomer, unassigned) [Example 101] came in with a cytotoxic concentration (CC50) at 4 days greater than 1000 nM. In addition, the EC50 in series [2] (Table 1a) came out at 335 nM.
With `CC(C)c1ccc(-c2c(C(Cc3cc(F)cc(F)c3)NC(=O)Cn3nc(C(F)F)c4c3C(F)(F)[C@@H]3C[C@H]43)ncc3[nH]ncc23)cn1` (mixture of isomers) [Example 10.1], in series [1] (Table 1, day 4, XTT), the CC50 at 4 days is greater than 10000 nM. Also, the EC50 in series [2] (Renilla, NL43, Table 1) came to 140 nM.
In turn, `COc1ccc2c(=O)n(-c3ccc(Cl)c4c(NS(=O)(=O)C5CC5)nn(CC(F)F)c34)c([C@H](Cc3cc(F)cc(F)c3)NC(=O)Cn3nc(C(F)F)c4c3C(F)(F)[C@@H]3C[C@H]43)nc2n1` (mixture of isomers) [Example 56.2, N-[(1S)-1-{3-[4-chloro-3-cyclopropanesulfonamido-1-(2,2-difluoroethyl)-1H-indazol-7-yl]-7-methoxy-4-oxo-3H,4H-pyrido[2,3-d]pyrimidin-2-yl}-2-(3,5-difluorophenyl)ethyl]-2-[(2S,4R)-9-(difluoromethyl)-5,85-difluoro-7,8-diazatricyclo[4.3.0.0^2,4]nona-1(6),8-dien-7-yl]acetamide] yielded a cytotoxic concentration (CC50) at 4 days in series [1] (Table 1a, day 4, XTT) greater than 1000 nM. The EC50 in series [2] (Renilla, NL43, Table 1a) amounted to 0.022 nM.
In series [1] (Table 1, day 4, XTT), `CC(C)c1ccc(-n2c([C@H](Cc3cc(F)cc(F)c3)NC(=O)Cn3nc(C(F)F)c4c3C(F)(F)[C@@H]3C[C@H]43)nc3ncccc3c2=O)cn1` [Example 10.37] registered a CC50 at 4 days of 6900 nM. Moreover, in series [2] (Renilla, NL43, Table 1), the concentration giving a half-maximal response (EC50) stood at 4.8 nM.
Take `COc1ccc(-n2c([C@H](Cc3cc(F)cc(F)c3)NC(=O)Cn3nc(C(F)F)c4c3C(F)(F)[C@@H]3C[C@H]43)nc3ncccc3c2=O)cn1` [Example 29, 2-[(2S,4R)-9-(difluoromethyl)-5,5-difluoro-7,8-diazatricyclo[4.3.0.0^2,4]nona-1(6),8-dien-7-yl]-N-[(1S)-2-(3,5-difluorophenyl)-1-[3-(6-methoxypyridin-3-yl)-4-oxo-3H,4H-pyrido[2,3-d]pyrimidin-2-yl]ethyl]acetamide]: the CC50 at 4 days in series [1] (Table 1a, day 4, XTT) was greater than 10000 nM. Moreover, in series [2] (Renilla, NL43, Table 1a), the 50% effective concentration (EC50) came to 26 nM.
On the same counts, the results for `CS(=O)(=O)Nc1nn(CC(F)F)c2c(-c3nc4ccccc4nc3[C@H](Cc3cc(F)cc(F)c3)NC(=O)Cn3nc(C(F)F)c4c3C(F)(F)[C@@H]3C[C@H]43)ccc(Cl)c12` [Example 96, N—((S)-1-(3-(4-chloro-1-(2,2-difluoroethyl)-3-(methylsulfonamido)-1H-indazol-7-yl)quinoxalin-2-yl)-2-(3,5-difluorophenyl)ethyl)-2-((3bS,4aR)-3-(difluoromethyl)-5,5-difluoro-3b,4,4a,5-tetrahydro-1H-cyclopropa[3,4]cyclopenta[1,2-c]pyrazol-1-yl)acetamide] are greater than 1000 nM and 0.26 nM.
On to `CS(=O)(=O)NC(=O)c1cc(-c2cc3[nH]ncc3nc2[C@H](Cc2cc(F)cc(F)c2)NC(=O)Cn2nc(C(F)F)c3c2C(F)(F)[C@@H]2C[C@H]32)ccc1Cl` [Example 10.18, 2-Chloro-5-(5-((S)-1-(2-((3bS,4aR)-3-(difluoromethyl)-5,5-difluoro-3b,4,4a,5-tetrahydro-1H-cyclopropa[3,4]cyclopenta[1,2-c]pyrazol-1-yl)acetamido)-2-(3,5-difluorophenyl)ethyl)-1H-pyrazolo[4,3-b]pyridin-6-yl)-N-(methylsulfonyl)benzamide], for which, in series [1] (Table 1, day 4, XTT), the half-maximal cytotoxic concentration (CC50) at 4 days is greater than 10000 nM. Also, in series [2] (Renilla, NL43, Table 1), the half-maximal effective concentration (EC50) amounted to 670 nM.
The compound `Cn1nc(NS(C)(=O)=O)c2c(Cl)ccc(-n3c([C@H](Cc4cc(F)cc(F)c4)NC(=O)Cn4nc(C(F)F)c5c4C(F)(F)[C@@H]4C[C@H]54)nc4c(F)cc(F)cc4c3=O)c21` (single isomer, unassigned) [Example 74] showed a CC50 at 4 days in series [1] (Table 1a, day 4, XTT) greater than 1000 nM. Besides, the EC50 in series [2] (Renilla, NL43, Table 1a) was 0.0513 nM.
`Cn1nc(NS(C)(=O)=O)c2c(Cl)ccc(-c3cc4[nH]ccc4nc3C(Cc3cc(F)cc(F)c3)NC(=O)Cn3nc(C(F)F)c4c3C(F)(F)[C@@H]3C[C@H]43)c21` (single isomer, unassigned) [Example 5.1]: the CC50 at 4 days in series [1] (Table 1, day 4, XTT) was greater than 10000 nM. For the same compound, the concentration giving a half-maximal response (EC50) in series [2] (Table 1) worked out at 220 nM.
In the case of `COc1cc(F)c2c(=O)n(-c3ccc(Cl)c4c(NS(C)(=O)=O)nn(C)c34)c([C@H](Cc3cc(F)cc(F)c3)NC(=O)Cn3ccc(C4CC4)n3)nc2c1` [Example 188, (S)—N-(1-(3-(4-chloro-1-methyl-3-(methylsulfonamido)-1H-indazol-7-yl)-5-fluoro-7-methoxy-4-oxo-3,4-dihydroquinazolin-2-yl)-2-(3,5-difluorophenyl)ethyl)-2-(3-cyclopropyl-1H-pyrazol-1-yl)acetamide], the CC50 at 4 days in series [1] (Table 1a, day 4, XTT) was greater than 1000 nM.
Same read-out and setting: the figure for `Cn1nc(NS(C)(=O)=O)c2c(Cl)ccc(-n3c([C@H](Cc4cc(F)cc(F)c4)NC(=O)Cn4ccc(C5CC5)n4)nc4cc(CS(C)(=O)=O)ccc4c3=O)c21` [Example 205, (S)—N-(1-(3-(4-chloro-1-methyl-3-(methylsulfonamido)-1H-indazol-7-yl)-7-((methylsulfonyl)methyl)-4-oxo-3,4-dihydroquinazolin-2-yl)-2-(3,5-difluorophenyl)ethyl)-2-(3-cyclopropyl-1H-pyrazol-1-yl)acetamide] is greater than 1000 nM.
Same read-out and setting: the figure for `COc1cccc2c(=O)n(-c3ccc(Cl)c4c(NS(C)(=O)=O)nn(C)c34)c([C@H](Cc3cc(F)cc(F)c3)NC(=O)Cn3nc(C(F)F)c4c3C(F)(F)[C@@H]3C[C@H]43)nc12` (single isomer, unassigned) [Example 103] is greater than 1000 nM.
